This experiment has as its target T1, SIRT1 (Homo sapiens, UniProt Q96EB6).
T1 sequence (Q96EB6 1-747): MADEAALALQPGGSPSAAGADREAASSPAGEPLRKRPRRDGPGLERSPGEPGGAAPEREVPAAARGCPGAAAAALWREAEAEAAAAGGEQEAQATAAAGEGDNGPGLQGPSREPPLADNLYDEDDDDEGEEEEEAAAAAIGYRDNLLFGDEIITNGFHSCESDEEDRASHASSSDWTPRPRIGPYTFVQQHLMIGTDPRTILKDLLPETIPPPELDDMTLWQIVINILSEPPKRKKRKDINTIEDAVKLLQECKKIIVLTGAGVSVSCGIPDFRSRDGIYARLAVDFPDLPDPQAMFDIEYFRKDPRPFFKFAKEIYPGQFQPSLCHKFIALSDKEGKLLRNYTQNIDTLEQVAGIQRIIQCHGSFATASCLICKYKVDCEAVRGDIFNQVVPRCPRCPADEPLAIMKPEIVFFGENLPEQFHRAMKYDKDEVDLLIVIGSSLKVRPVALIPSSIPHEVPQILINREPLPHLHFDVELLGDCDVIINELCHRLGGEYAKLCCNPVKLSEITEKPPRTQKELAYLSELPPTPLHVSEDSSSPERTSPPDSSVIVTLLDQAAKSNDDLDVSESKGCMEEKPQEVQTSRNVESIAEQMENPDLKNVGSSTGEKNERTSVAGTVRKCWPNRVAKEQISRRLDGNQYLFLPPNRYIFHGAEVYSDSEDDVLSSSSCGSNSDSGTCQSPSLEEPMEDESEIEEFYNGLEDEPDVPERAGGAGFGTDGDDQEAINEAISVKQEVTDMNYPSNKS
Kind of experiment: Mass spectrometry based SIRT1 deacetylase activation assay (acetylated p53-derived peptide substrate). The class given is biochemical. An excerpt: A mass spectrometry based assay was used to identify modulators of SIRT1 activity. The mass spectrometry based assay utilizes a peptide having 20 amino acid residues as follows: Ac-EE-K(biotin)-GQSTSSHSK(Ac)NleSTEG-K(5TMR)-EE-NH2 (SEQ ID NO: 1) wherein K(Ac) is an acetylated lysine residue and Nle is a norleucine. The peptide is labeled with the fluorophore 5TMR (excitation 540 nm/emission 580 nm) at the C-terminus. The sequence of the peptide substrate is based on p53 with several modifications. In addition, the methionine residue naturally present in the sequence was replaced with the norleucine because the methionine may be susceptible to oxidation during synthesis and purification.
The mass spectrometry assay is conducted as follows: 0.5 μM peptide substrate and 120 μM βNAD^+ is incubated with 10 nM SIRT1 for 25 minutes at 25° C. in a reaction buffer (50 mM Tris-acetate pH 8, 137 mM NaCl, 2.7 mM KCl, 1 mM MgCl2, 5 mM DTT, 0.05% BSA). Test compounds may be added to the reaction as described above. […] After the 25 minute incubation with SIRT1, 10 μL of 10% formic acid is added to stop the reaction. Reactions are sealed and frozen for later mass spec analysis. Determination of the mass of the substrate peptide allows for precise determination of the degree of acetylation (i.e. starting material) as compared to deacetylated peptide (product).
A control for inhibition of sirtuin activity is conducted by adding 1 μL of 500 mM nicotinamide as a negative control at the start of the reaction (e.g., permits determination of maximum sirtuin inhibition). A control for activation of sirtuin activity is conducted using 10 nM of sirtuin protein, with 1 μL of DMSO in place of compound, to determine the amount of deacetylation of the substrate at a given timepoint within the linear range of the assay. This timepoint is the same as that used for test compounds and, within the linear range, the endpoint represents a change in velocity.
For the above assay, SIRT1 protein was expressed and purified as follows. […] The protein was expressed by induction with 1 mM IPTG as an N-terminal His-tag fusion protein at 18° C. overnight and harvested at 30,000×g. Cells were lysed with lysozyme in lysis buffer (50 mM Tris-HCl, 2 mM Tris[2-carboxyethyl]phosphine (TCEP), 10 μM ZnCl2, 200 mM NaCl) and further treated with sonication for 10 min for complete lysis. The protein was purified over a Ni-NTA column (Amersham) and fractions containing pure protein were pooled, concentrated and run over a sizing column (Sephadex S200 26/60 global). The peak containing soluble protein was collected and run on an Ion-exchange column (MonoQ). Gradient elution (200 mM-500 mM NaCl) yielded pure protein. This protein was concentrated and dialyzed against dialysis buffer (20 mM Tris-HCl, 2 mM TCEP) overnight. The protein was aliquoted and frozen at −80° C. until further use.
Sirtuin modulating compounds that activated SIRT1 were identified using the assay described above and are shown below in Table 1. The EC1.5 values for the activating compounds are represented by A (EC1.5<1.0 uM), B (EC1.5 1-25 uM), C (EC1.5 >25 uM). The percent maximum fold activation is represented by A (Fold activation >200%) or B (Fold Activation <200%).

[1] abbreviates: 0.5 μM peptide substrate, 120 μM βNAD+, 10 nM SIRT1, 25 min at 25° C.
Setting [2] is: 0.5 μM peptide substrate, 120 μM βNAD+, 10 nM SIRT1, 25 min at 25° C., read-out: EC1.5.
Setting [3] is: 0.5 μM peptide substrate, 120 μM βNAD+, 10 nM SIRT1, 25 minutes at 25° C.

Where two headings read alike, the source gives them in different places.

The values that follow come from US8846947B2, “Benzimidazoles and related analogs as sirtuin modulators” (GlaxoSmithKline LLC, priority 2008, dated 2014).

As to `O=C(Nc1nccs1)c1cccc2[nH]c(-c3cc(F)ccc3C(F)F)nc12` [Compound 511], the “Fold Act. (percent maximum fold activation)” value under setting [1] is reported as “A (Fold activation >200%)”. The EC1.5 under setting [2] lay within 1000 to 25000 nM.
For `O=C(Nc1cccc(OC2CCNC2)c1)c1cccc2[nH]c(-c3ccccc3C(F)(F)F)nc12` (centres unmarked) [Compound 526] the same measures were “A (Fold activation >200%)” and under 1000 nM.
The matching figures for `O=C(Nc1ccccn1)c1cccc2[nH]c(-c3cc(F)cc(F)c3OCCN3CCOCC3)nc12` [Compound 586]: “B (Fold Activation <200%)” and 1000 to 25000 nM.
As to `O=C(Nc1cccnn1)c1cccc2[nH]c(-c3cccc(C(F)(F)F)c3)nc12` [Compound 300], the EC1.5 result is on record as “A (EC1.5<1.0 uM)” and the “Fold Act. (percent maximum fold activation)” value is listed as “A (Fold activation >200%)”.
For `O=C(Nc1nccs1)c1cccc2[nH]c(-c3cc(C(F)(F)F)ccc3F)nc12` [Compound 218] the same measures were “B (EC1.5 1-25 uM)” and “A (Fold activation >200%)”.
As to `O=C(Nc1cccnc1)c1cccc2[nH]c(-c3ccc(N4CCOCC4)cc3C(F)(F)F)nc12` [Compound 430, 2-(4-morpholino-2-(trifluoromethyl)phenyl)-N-(pyridin-3-yl)-1H-benzo[d]imidazole-4-carboxamide], the “Fold Act. (percent maximum fold activation)” value under setting [1] was “A (Fold activation >200%)”. The EC1.5 under setting [2] is under 1000 nM.
As for `Cc1cc(Cl)cc(-c2nc3c(C(=O)Nc4ccccn4)cccc3[nH]2)c1OCCN1CCOCC1` [Compound 506], the “Fold Act. (percent maximum fold activation)” value under setting [1] is “B (Fold Activation <200%)”. Also, the EC1.5 under setting [2] lay within 1000 to 25000 nM.
As to `O=C(Nc1cccc2[nH]c(-c3ccccc3C(F)(F)F)nc12)c1cscn1` [Compound 363], the EC1.5 result is reported as “B (EC1.5 1-25 uM)” and the “Fold Act. (percent maximum fold activation)” value is given as “A (Fold activation >200%)”.
The matching figures for `O=C(Nc1cccnc1)c1cccc2[nH]c(-c3cccc(N4CCCCC4)n3)nc12` [Compound 390]: “B (EC1.5 1-25 uM)” and “B (Fold Activation <200%)”.
For `O=C(Nc1nc(CN2CCOCC2)cs1)c1cccc2[nH]c(-c3cc(F)ccc3C(F)(F)F)nc12` [Compound 701], under setting [3], the EC1.5 entry was “A (EC1.5<1.0 uM)” and the “Fold Act. (percent maximum fold activation)” value is given as “A (Fold activation >200%)”.
With `Cc1nc(NC(=O)c2cccc3[nH]c(-c4cccc(N5CCOCC5)c4)nc23)sc1C` [Compound 382], the EC1.5 entry was “A (EC1.5<1.0 uM)” and the “Fold Act. (percent maximum fold activation)” value is “A (Fold activation >200%)”.
On to `O=C(Nc1cccc(CN2CCOCC2)n1)c1cccc2[nH]c(-c3cccc(F)c3)nc12` [Compound 851], for which, under setting [3], the EC1.5 entry is on record as “A (EC1.5<1.0 uM)” and the “Fold Act. (percent maximum fold activation)” value is recorded as “A (Fold activation >200%)”.
For `O=C(Nc1cccnn1)c1cncc2[nH]c(-c3ccc(F)cc3C(F)(F)F)nc12` [Compound 696] the same measures were “B (EC1.5 1-25 uM)” and “A (Fold activation >200%)”.
The matching figures for `O=C(Nc1ccccc1)c1cccc2[nH]c(-c3cc(F)ccc3C(F)(F)F)nc12` [Compound 756]: “A (EC1.5<1.0 uM)” and “A (Fold activation >200%)”.
On to `CN1CCOc2cc(-c3nc4c(C(=O)Nc5cccnc5)cccc4[nH]3)cnc21` [Compound 372], for which the EC1.5 result was “A (EC1.5<1.0 uM)” and the “Fold Act. (percent maximum fold activation)” value is on record as “A (Fold activation >200%)”.
Turning to `O=C(Nc1ccccn1)c1cccc2[nH]c(-c3ccccc3OCCN3CCCC3)nc12` [Compound 472], under setting [1], the “Fold Act. (percent maximum fold activation)” value is reported as “B (Fold Activation <200%)”. In addition, the EC1.5 under setting [2] was 1000 to 25000 nM.
With `O=C(Nc1ccc(CN2CCOCC2)cn1)c1cccc2[nH]c(-c3ccc(Cl)cc3C(F)(F)F)nc12` [Compound 676], under setting [3], the EC1.5 result was “A (EC1.5<1.0 uM)” and the “Fold Act. (percent maximum fold activation)” value is given as “A (Fold activation >200%)”.
For `Cc1cnc(NC(=O)c2cncc3nc(-c4ccc(OC[C@@H](O)CO)cc4C(F)F)[nH]c23)s1` [Compound 772] the same measures were “A (EC1.5<1.0 uM)” and “A (Fold activation >200%)”.
For `O=C(Nc1nc(CN2CCOCC2)cs1)c1cccc2[nH]c(-c3ccc(F)cc3C(F)F)nc12` [Compound 846] the same measures were “A (EC1.5<1.0 uM)” and “A (Fold activation >200%)”.
With `Cc1cc(NC(=O)c2cccc3[nH]c(-c4cccc(N5CCOCC5)c4)nc23)no1` [Compound 469], the “Fold Act. (percent maximum fold activation)” value under setting [1] is “A (Fold activation >200%)”. Further, the EC1.5 under setting [2] lay within 1000 to 25000 nM.
Consider `O=C(Nc1ncccn1)c1cccc2[nH]c(-c3cccc(C(F)(F)F)c3)nc12` [Compound 241], for which the EC1.5 result is “C (EC1.5 >25 uM)” and the “Fold Act. (percent maximum fold activation)” value was “B (Fold Activation <200%)”.
As for `O=C(Nc1cccnc1)c1cc(N2CCOCC2)cc2[nH]c(-c3ccc(F)cc3C(F)(F)F)nc12` [Compound 691], under setting [3], the EC1.5 entry is on record as “A (EC1.5<1.0 uM)” and the “Fold Act. (percent maximum fold activation)” value is “A (Fold activation >200%)”.
For `O=C(Nc1cccc(OC[C@@H](O)CO)c1)c1cncc2[nH]c(-c3ccc(Cl)cc3C(F)F)nc12` [Compound 716], under setting [3], the EC1.5 entry is on record as “A (EC1.5<1.0 uM)” and the “Fold Act. (percent maximum fold activation)” value is given as “A (Fold activation >200%)”.
For `Cn1nc(C(F)(F)F)c(-c2nc3c(C(=O)Nc4nccs4)cccc3[nH]2)c1Cl` [Compound 295], the EC1.5 result was “A (EC1.5<1.0 uM)” and the “Fold Act. (percent maximum fold activation)” value is on record as “A (Fold activation >200%)”.
The matching figures for `O=C(Nc1cccnc1)c1cccc2[nH]c(-c3cccc(N4CCOCC4)c3)nc12` [Compound 288]: “A (EC1.5<1.0 uM)” and “A (Fold activation >200%)”.
Take `O=C(Nc1cccc(OC[C@H](O)CO)c1)c1cc(F)cc2[nH]c(-c3ccccc3C(F)F)nc12` [Compound 811, (R)-2-(2-(difluoromethyl)phenyl)-N-(3-(2,3-dihydroxypropoxy)phenyl)-6-fluoro-1H-benzo[d]imidazole-4-carboxamide]: under setting [3], the EC1.5 result was “A (EC1.5<1.0 uM)” and the “Fold Act. (percent maximum fold activation)” value is “A (Fold activation >200%)”.
Regarding `O=C(Nc1ccccn1)c1cccc2[nH]c(-c3ccccc3OCCN3CCOCC3)nc12` [Compound 474], under setting [1], the “Fold Act. (percent maximum fold activation)” value was “A (Fold activation >200%)”. Moreover, under setting [2], the EC1.5 lay in the range of 1000 to 25000 nM.
`O=C(Nc1cccc(CN2CCCC2)n1)c1cccc2[nH]c(-c3cc(F)ccc3C(F)(F)F)nc12` [Compound 623]: under setting [3], the EC1.5 result is recorded as “A (EC1.5<1.0 uM)” and the “Fold Act. (percent maximum fold activation)” value is on record as “A (Fold activation >200%)”.
